Calls of active or inactive are those of the source. How the calls were made is not given here.
System: CCRIS mutagenicity, Ames/micronucleus/aberration tests
Experiment: CCRIS mutagenicity studies
[1] = Test System: AMES SALMONELLA TYPHIMURIUM, Strain/Indicator: TA98, Metabolic Activation: NONE, Method: PREINCUBATION
[2] = Test System: AMES SALMONELLA TYPHIMURIUM, Strain/Indicator: TA100, Metabolic Activation: NONE, Method: PREINCUBATION
[3] = Test System: AMES SALMONELLA TYPHIMURIUM, Strain/Indicator: TA1535, Metabolic Activation: NONE, Method: PREINCUBATION
[4] = Test System: AMES SALMONELLA TYPHIMURIUM, Strain/Indicator: TA98, Metabolic Activation: NONE, Method: STANDARD PLATE
[5] = Test System: AMES SALMONELLA TYPHIMURIUM, Strain/Indicator: TA100, Metabolic Activation: NONE, Method: STANDARD PLATE
[6] = Test System: AMES SALMONELLA TYPHIMURIUM, Strain/Indicator: TA1535, Metabolic Activation: NONE, Method: STANDARD PLATE
[7] = Test System: AMES SALMONELLA TYPHIMURIUM, Strain/Indicator: TA1537, Metabolic Activation: NONE, Method: STANDARD PLATE

Measured: mutagenic call

Cc1ccc(S(=O)(=O)NC(=O)NN2CCCCCC2)cc1
inactive: Test System: AMES SALMONELLA TYPHIMURIUM, Strain/Indicator: TA97, Metabolic Activation: HAMSTER, LIVER, S-9, AROCLOR 1254 (10%), Method: PREINCUBATION inactive; negative | Test System: AMES SALMONELLA TYPHIMURIUM, Strain/Indicator: TA97, Metabolic Activation: HAMSTER, LIVER, S-9, AROCLOR 1254 (30%), Method: PREINCUBATION inactive; negative | Test System: AMES SALMONELLA TYPHIMURIUM, Strain/Indicator: TA97, Metabolic Activation: NONE, Method: PREINCUBATION inactive; negative | Test System: AMES SALMONELLA TYPHIMURIUM, Strain/Indicator: TA97, Metabolic Activation: RAT, LIVER, AROCLOR 1254 (30%), Method: PREINCUBATION inactive; negative | Test System: AMES SALMONELLA TYPHIMURIUM, Strain/Indicator: TA97, Metabolic Activation: RAT, LIVER, S-9, AROCLOR 1254 (10%), Method: PREINCUBATION inactive; negative | Test System: AMES SALMONELLA TYPHIMURIUM, Strain/Indicator: TA98, Metabolic Activation: HAMSTER, LIVER, S-9, AROCLOR 1254 (10 OR 30%), Method: PREINCUBATION inactive; negative | [1] inactive; negative | Test System: AMES SALMONELLA TYPHIMURIUM, Strain/Indicator: TA98, Metabolic Activation: RAT, LIVER, S-9, AROCLOR 1254 (10 OR 30%), Method: PREINCUBATION inactive; negative | Test System: AMES SALMONELLA TYPHIMURIUM, Strain/Indicator: TA100, Metabolic Activation: HAMSTER, LIVER, S-9, AROCLOR 1254 (10 OR 30%), Method: PREINCUBATION inactive; negative | [2] inactive; negative | Test System: AMES SALMONELLA TYPHIMURIUM, Strain/Indicator: TA100, Metabolic Activation: RAT, LIVER, S-9, AROCLOR 1254 (10%), Method: PREINCUBATION inactive; negative | Test System: AMES SALMONELLA TYPHIMURIUM, Strain/Indicator: TA1535, Metabolic Activation: HAMSTER, LIVER, S-9, AROCLOR 1254 (10%), Method: PREINCUBATION inactive; negative | [3] inactive; negative | Test System: AMES SALMONELLA TYPHIMURIUM, Strain/Indicator: TA1535, Metabolic Activation: RAT, LIVER, S-9, AROCLOR 1254 (10 OR 30%), Method: PREINCUBATION inactive; negative
active: Test System: AMES SALMONELLA TYPHIMURIUM, Strain/Indicator: TA1535, Metabolic Activation: HAMSTER, LIVER, S-9, AROCLOR 1254 (30%), Method: PREINCUBATION active; positive

BrCc1ccc(Br)cc1
inactive: Test System: AMES SALMONELLA TYPHIMURIUM, Strain/Indicator: TA97A, Metabolic Activation: NONE, Method: STANDARD PLATE inactive; negative | Test System: AMES SALMONELLA TYPHIMURIUM, Strain/Indicator: TA97A, Metabolic Activation: RAT LIVER S-9, PHENOBARBITAL, BETA-NAPHTHOFLAVONE, 3.5%, Method: STANDARD PLATE inactive; negative | [4] inactive; negative | Test System: AMES SALMONELLA TYPHIMURIUM, Strain/Indicator: TA98, Metabolic Activation: RAT LIVER S-9, PHENOBARBITAL, BETA-NAPHTHOFLAVONE, 3.5%, Method: STANDARD PLATE inactive; negative | [5] inactive; negative | Test System: AMES SALMONELLA TYPHIMURIUM, Strain/Indicator: TA100, Metabolic Activation: RAT LIVER S-9, PHENOBARBITAL, BETA-NAPHTHOFLAVONE, 3.5%, Method: STANDARD PLATE inactive; negative | [6] inactive; negative | Test System: AMES SALMONELLA TYPHIMURIUM, Strain/Indicator: TA1535, Metabolic Activation: RAT LIVER S-9, PHENOBARBITAL, BETA-NAPHTHOFLAVONE, 3.5%, Method: STANDARD PLATE inactive; negative | Test System: ESCHERICHIA COLI, Strain/Indicator: WP2 UVR A, Metabolic Activation: NONE, Method: STANDARD PLATE inactive; negative | Test System: ESCHERICHIA COLI, Strain/Indicator: WP2 UVR A, Metabolic Activation: RAT LIVER S-9, PHENOBARBITAL, BETA-NAPHTHOFLAVONE, 3.5%, Method: STANDARD PLATE inactive; negative

CC(C)Oc1ccc2c(=O)c(-c3ccccc3)coc2c1
inactive: [4] inactive; negative | Test System: AMES SALMONELLA TYPHIMURIUM, Strain/Indicator: TA98, Metabolic Activation: S-9, Method: STANDARD PLATE inactive; negative | [5] inactive; negative | Test System: AMES SALMONELLA TYPHIMURIUM, Strain/Indicator: TA100, Metabolic Activation: S-9, Method: STANDARD PLATE inactive; negative | [6] inactive; negative | Test System: AMES SALMONELLA TYPHIMURIUM, Strain/Indicator: TA1535, Metabolic Activation: S-9, Method: STANDARD PLATE inactive; negative | [7] inactive; negative | Test System: AMES SALMONELLA TYPHIMURIUM, Strain/Indicator: TA1537, Metabolic Activation: S-9, Method: STANDARD PLATE inactive; negative | Test System: AMES SALMONELLA TYPHIMURIUM, Strain/Indicator: TA1538, Metabolic Activation: NONE, Method: STANDARD PLATE inactive; negative | Test System: AMES SALMONELLA TYPHIMURIUM, Strain/Indicator: TA1538, Metabolic Activation: S-9, Method: STANDARD PLATE inactive; negative | Test System: E. COLI, Strain/Indicator: WP2 UVRA, Metabolic Activation: NONE, Method: STANDARD PLATE inactive; negative | Test System: E. COLI, Strain/Indicator: WP2 UVRA, Metabolic Activation: S-9, Method: STANDARD PLATE inactive; negative

CCC[CH2][Sn]=[O]
inactive: Test System: AMES SALMONELLA TYPHIMURIUM, Strain/Indicator: TA98, Metabolic Activation: NONE, Method: SUSPENSION/PLATE inactive; negative | Test System: AMES SALMONELLA TYPHIMURIUM, Strain/Indicator: TA100, Metabolic Activation: NONE, Method: SUSPENSION/PLATE inactive; negative

[Cl][Mn][Cl]
active: Test System: AMES SALMONELLA TYPHIMURIUM, Strain/Indicator: TA102, Metabolic Activation: NONE, Method: STANDARD PLATE active; positive
inactive: [1] inactive; negative | Test System: AMES SALMONELLA TYPHIMURIUM, Strain/Indicator: TA98, Metabolic Activation: RAT LIVER S-9, PHENOBARBITAL AND BETA-NAPHTHOFLAVONE, Method: PREINCUBATION inactive; negative | [2] inactive; negative | Test System: AMES SALMONELLA TYPHIMURIUM, Strain/Indicator: TA100, Metabolic Activation: RAT LIVER S-9, PHENOBARBITAL AND BETA-NAPHTHOFLAVONE, Method: PREINCUBATION inactive; negative | [3] inactive; negative | Test System: AMES SALMONELLA TYPHIMURIUM, Strain/Indicator: TA1535, Metabolic Activation: RAT LIVER S-9, PHENOBARBITAL AND BETA-NAPHTHOFLAVONE, Method: PREINCUBATION inactive; negative | Test System: AMES SALMONELLA TYPHIMURIUM, Strain/Indicator: TA1537, Metabolic Activation: NONE, Method: PREINCUBATION inactive; negative | Test System: AMES SALMONELLA TYPHIMURIUM, Strain/Indicator: TA1537, Metabolic Activation: RAT LIVER S-9, PHENOBARBITAL AND BETA-NAPHTHOFLAVONE, Method: PREINCUBATION inactive; negative | Test System: AMES SALMONELLA TYPHIMURIUM, Strain/Indicator: TA1538, Metabolic Activation: NONE, Method: PREINCUBATION inactive; negative | Test System: AMES SALMONELLA TYPHIMURIUM, Strain/Indicator: TA1538, Metabolic Activation: RAT LIVER S-9, PHENOBARBITAL AND BETA-NAPHTHOFLAVONE, Method: PREINCUBATION inactive; negative | Test System: E. COLI, Strain/Indicator: WP2 UVRA, Metabolic Activation: NONE, Method: SPOT TEST inactive; negative | Test System: E.COLI, Strain/Indicator: WP2UVRA, Metabolic Activation: NONE, Method: PREINCUBATION inactive; negative | Test System: E.COLI, Strain/Indicator: WP2UVRA, Metabolic Activation: RAT LIVER S-9, PHENOBARBITAL AND BETA-NAPHTHOFLAVONE, Method: PREINCUBATION inactive; negative

CCCCC/C=C/C=O
active: Test System: CHINESE HAMSTER V-79, Strain/Indicator: V-79/6-THIOGUANINE, Metabolic Activation: NONE, Method: STANDARD PLATE active; positive
inactive: Test System: CHINESE HAMSTER V-79, Strain/Indicator: V-79/OUABAIN, Metabolic Activation: NONE, Method: STANDARD PLATE inactive; negative

CN(C)CCNC(=O)c1cccc2nc(-c3ccccc3)oc12
inactive: [7] inactive; negative

Source: PubChem BioAssay AID1259407 (Chemical Carcinogenesis Research Information System (CCRIS), 2018)
